# Results published in patent US20100248365A1, “GANGLIOSIDE BIOSYNTHESIS MODULATORS” (ZACHARON PHARMACEUTICALS, INC., priority 2009, published 2010).
# Biological target: T1, ST3Gal 1 (rat recombinant a 2,3-Sialytransferase) (Rattus norvegicus, UniProt Q6H8N0)
# T1 sequence (Q6H8N0 1-340): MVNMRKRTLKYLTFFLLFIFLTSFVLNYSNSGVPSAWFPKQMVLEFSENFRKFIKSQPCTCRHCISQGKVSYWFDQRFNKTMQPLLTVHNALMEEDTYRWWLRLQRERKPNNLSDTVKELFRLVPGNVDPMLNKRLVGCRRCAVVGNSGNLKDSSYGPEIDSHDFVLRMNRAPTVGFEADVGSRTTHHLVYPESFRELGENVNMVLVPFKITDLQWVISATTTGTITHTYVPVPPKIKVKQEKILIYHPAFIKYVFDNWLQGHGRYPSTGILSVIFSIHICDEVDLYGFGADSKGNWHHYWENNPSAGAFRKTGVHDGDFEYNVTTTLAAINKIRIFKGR
# Test: ST3Gal 1 assay with 2AA-labeled GSL standards, HPLC readout
# Type: biochemical
# Conditions: b350 ties FIG. 5/6 (compound 1) to the ST3Gal 1 assay
# Experimental: The enzyme ST3Gal 1 (rat recombinant a 2,3-Sialytransferase) assay was carried out with 2AA-labeled GSL standards as substrate. The complete incubation mixture contained the following components in a final volume of 20 ul: 50 mM cacodylate buffer, pH6.2, 10 mM MgCl2, 0.2% TX100, 2 mM CMP-sialic acid (CMP-SA), 100 ng 2AA-GM1/GD1b, 10 μU of ST3Gal1 enzyme. The reaction was carried out @37° C. for 30 min. Control reactions were done without CMP-SA. The reaction was analyzed by HPLC as described above. The % of product conversion was assessed by comparison to control samples. The enzyme titration curve was determined from 10, 3, 1, 0.3 and 0.1 μU of enzyme. The time course was determined using 10 μU of the enzyme, @ 0, 5, 10, 15, 30, 45, 60, 90, and 120 min. […] FIG. 5 illustrates the activity of late stage selective ganglioside inhibitors.
structure (smiles),measurement,value
"Cc1nn(-c2ccccc2)c(C)c1C=NN1CCN(Cc2ccccc2Cl)CC1 [compound 1, 4-(2-chlorobenzyl)-N-((3,5-dimethyl-1-phenyl-1H-pyrazol-4-yl)methylene)piperazin-1-amine]",inhibition of ST3Gal 1 enzyme activity (FIG. 5),inhibition
